According to US10865203B2, “Ligands selective to alpha 6 subunit-containing GABAA receptors and their methods of use” (UWM Research Foundation, Inc., priority 2015, dated 2020):
“Also recorded” adds a separate entry of the source. Read-outs that look alike come from different tables or passages of the source.

What was measured:
α1,4,6β3δ receptors = assay: Electrophysiology in Xenopus oocytes, delta-containing receptors; format: cell-based, rat
Protocol: Mature female Xenopus laevis (Nasco, Fort Atkinson, Wis., USA) were anaesthetized in a bath of ice-cold 0.17% Tricain (Ethyl-m-aminobenzoat, Sigma-Aldrich, St. Louis, Mo., USA) before decapitation and transfer of the frog's ovary to ND96 medium (96 mM NaCl, 2 mM KCl, 1 mM MgCl2, 5 mM HEPES; pH 7.5). Following incubation in 1 mg/mL collagenase (Sigma-Aldrich, St. Louis, Mo., USA) for 30 min, stage 5 to 6 oocytes were singled out of the ovary and defolliculated using a platinum wire loop. Oocytes were stored and incubated at 18° C. in NDE medium (96 mM NaCl, 2 mM KCl, 1 mM MgCl2, 5 mM HEPES, 1.8 mM CaCl2; pH 7.5) that was supplemented with 100 U per mL-1 penicillin, 100 μg per mL-1 streptomycin and 2.5 mM pyruvate. Oocytes were injected with an aqueous solution of mRNA. A total of 2.5 ng of mRNA per oocyte was injected. Subunit ratio was 1:1:5 for αxβγ2 (x=1, 2, 3, 5) and 3:1:5 for α4/6β3γ2 and αβδ receptors. Injected oocytes were incubated for at least 36 h before electrophysiological recordings. Oocytes were placed on a nylon-grid in a bath of NDE medium. For current measurements, the oocytes were impaled with two microelectrodes (2-3MΩ), which were filled with 2 M KCl. The oocytes were constantly washed by a flow of 6 mL per min-1 NDE that could be switched to NDE containing GABA and/or drugs. […] All recordings were performed at room temperature at a holding potential of −60 mV using a Warner OC-725C TEV (Warner Instrument, Hamden, Conn., USA) or a Dagan CA-1B Oocyte Clamp or a Dagan TEV-200A TEV (Dagan Corporation, Mineapolis, Minn., USA). Data were digitized using a Digidata 1322A or 1550 data acquisition system (Axon Instruments, Union City, Calif., USA), recorded using Clampex 10.5 software (Molecular Devices, Sunnyvale, Calif., USA), and analyzed using Clampfit 10.5 and GraphPad Prism 6.0 (La Jolla, Calif., USA) software. Concentration-response data were fitted using the Hill equation. Data are given as mean±SEM from at least three oocytes of two batches.
For selected test compounds full dose response curves were recorded in α1-6β3γ2 receptors. For selected compounds, dose response curves in additional receptor subtypes (α1, 4, 6β3δ, α6β1, 2γ2, α1-6β3) were also obtained. For a wider panel of compounds, a two point screening pharmacology was obtained at 1 and 10 μM compound concentrations.

[1] = tested on: binary αxβ3 (x=1, 2, 3, 5) receptors; assay: Electrophysiology in Xenopus oocytes, binary receptors; format: cell-based, rat
Protocol: Mature female Xenopus laevis (Nasco, Fort Atkinson, Wis., USA) were anaesthetized in a bath of ice-cold 0.17% Tricain (Ethyl-m-aminobenzoat, Sigma-Aldrich, St. Louis, Mo., USA) before decapitation and transfer of the frog's ovary to ND96 medium (96 mM NaCl, 2 mM KCl, 1 mM MgCl2, 5 mM HEPES; pH 7.5). Following incubation in 1 mg/mL collagenase (Sigma-Aldrich, St. Louis, Mo., USA) for 30 min, stage 5 to 6 oocytes were singled out of the ovary and defolliculated using a platinum wire loop. Oocytes were stored and incubated at 18° C. in NDE medium (96 mM NaCl, 2 mM KCl, 1 mM MgCl2, 5 mM HEPES, 1.8 mM CaCl2; pH 7.5) that was supplemented with 100 U per mL-1 penicillin, 100 μg per mL-1 streptomycin and 2.5 mM pyruvate. Oocytes were injected with an aqueous solution of mRNA. A total of 2.5 ng of mRNA per oocyte was injected. Subunit ratio was 1:1:5 for αxβγ2 (x=1, 2, 3, 5) and 3:1:5 for α4/6β3γ2 and αβδ receptors. Injected oocytes were incubated for at least 36 h before electrophysiological recordings. Oocytes were placed on a nylon-grid in a bath of NDE medium. For current measurements, the oocytes were impaled with two microelectrodes (2-3MΩ), which were filled with 2 M KCl. The oocytes were constantly washed by a flow of 6 mL per min-1 NDE that could be switched to NDE containing GABA and/or drugs. Drugs were diluted into NDE from DMSO solutions resulting in a final concentration of 0.1% DMSO. Maximum currents measured in mRNA injected oocytes were in the microampere range for all receptor subtypes. […] Data were digitized using a Digidata 1322A or 1550 data acquisition system (Axon Instruments, Union City, Calif., USA), recorded using Clampex 10.5 software (Molecular Devices, Sunnyvale, Calif., USA), and analyzed using Clampfit 10.5 and GraphPad Prism 6.0 (La Jolla, Calif., USA) software. […]
For selected test compounds full dose response curves were recorded in α1-6β3γ2 receptors. […]

[2] = Pharmacokinetic study in rats, plasma and brain; details: for total concentration in rat brain tissue: nanoemulsion or suspension; for half-life: male, Wistar, rat, ip, 10 mg/kg
From the text: Five pharmacokinetic studies have been performed; four in male Wistar rats and one in male Swiss mice. […] In a separate in vitro experiment, the rapid equilibrium dialysis assay was used to determine free fraction of DK-I-56-1 in rat plasma and brain tissue.

SMILES	α6 preference among α1,4,6β3δ receptors (α1,4,6β3δ receptors)	α6 preference among α1,4,6β3δ receptors (α1,4,6β3δ receptors; listed as compound 6)	efficacy in binary αxβ3 receptors [1]	total concentration in rat brain tissue ([2]; 10 mg/kg i.p.)	time of maximum concentration in rat brain tissue ([2]; 10 mg/kg i.p.) [h]	free concentrations in rat brain tissue ([2]; 10 mg/kg i.p., estimated from free fraction) [nM]	half-life ([2]; brain) [h]	half-life ([2]; in vivo) [h]
COc1ccc(-n2nc3c4ccc(OC)cc4[nH]cc-3c2=O)cc1 [Compound 6, 7-Methoxy-2-(4-methoxyphenyl)-2,5-dihydro-3H-pyrazolo[4,3-c]quinolin-3-one]	α6 preference	preferentially modulate the α6β3δ receptor	low efficacy	high submicromolar concentrations				
[2H]C([2H])([2H])Oc1ccc(-n2nc3c4ccc(OC)cc4[nH]cc-3c2=O)cc1 [DK-I-56-1, 7-Methoxy-2-(4-methoxy-d3-phenyl)-2,5-dihydro-3H-pyrazolo[4,3-c]quinolin-3-one]				micromolar concentrations	3	≥ 100	~4	
[2H]C([2H])([2H])Oc1ccc2c3nn(-c4ccc(OC)nc4)c(=O)c-3c[nH]c2c1 [DK-I-86-1, 7-Methoxy-d3-2-(6-methoxypyridin-3-yl)-2,5-dihydro-3H-pyrazolo[4,3-c]quinolin-3-one]				high submicromolar concentrations				~9
COc1cccc(-n2nc3c4cc(Cl)ccc4[nH]cc-3c2=O)c1 [LAU 159, 8-Chloro-2-(3-methoxyphenyl)-2,5-dihydro-3H-pyrazolo[4,3-c]quinolin-3-one]	preferentially modulate the α6β3δ receptor; also recorded: α6 preference		low efficacy					
COc1ccc(-n2nc3c4ccc(Br)cc4[nH]cc-3c2=O)cc1 [LAU 463, 7-Bromo-2-(4-methoxyphenyl)-2,5-dihydro-3H-pyrazolo[4,3-c]quinolin-3-one]	α6 preference		low efficacy					
